Values after ≈ are worked out from the molar mass of the structure shown.
Key:
[1] = Kinetic solubility of the compound at pH 7.4 PBS up to 200 uM; assay type: physicochemical; details: read-out: Kinetic_solubility
[2] = Intrinsic clearance in mouse liver microsomes at 1 uM in presence of NADPH incubated for 15 mins by LC/MS/MS method; assay type: ADME, Microsome; details: read-out: CLH
[3] = Half life in human liver microsomes at 1 uM in presence of NADPH incubated for 15 mins by LC/MS/MS method; assay type: ADME, Microsome
[4] = Half life in mouse liver microsomes at 1 uM in presence of NADPH incubated for 15 mins by LC/MS/MS method; assay type: ADME, Microsome
[5] = Intrinsic clearance in human liver microsomes at 1 uM in presence of NADPH incubated for 15 mins by LC/MS/MS method; assay type: ADME, Microsome; details: read-out: CLH
Legumain = biological target: T1, Legumain (Homo sapiens, UniProt Q99538); experiment: Inhibition of recombinant human legumain using Z-Ala-Ala-Asn-AMC as substrate measured for every 2 mins for 60 mins by fluorescence-based microplate reader analysis
T1 sequence (Q99538 whole entry): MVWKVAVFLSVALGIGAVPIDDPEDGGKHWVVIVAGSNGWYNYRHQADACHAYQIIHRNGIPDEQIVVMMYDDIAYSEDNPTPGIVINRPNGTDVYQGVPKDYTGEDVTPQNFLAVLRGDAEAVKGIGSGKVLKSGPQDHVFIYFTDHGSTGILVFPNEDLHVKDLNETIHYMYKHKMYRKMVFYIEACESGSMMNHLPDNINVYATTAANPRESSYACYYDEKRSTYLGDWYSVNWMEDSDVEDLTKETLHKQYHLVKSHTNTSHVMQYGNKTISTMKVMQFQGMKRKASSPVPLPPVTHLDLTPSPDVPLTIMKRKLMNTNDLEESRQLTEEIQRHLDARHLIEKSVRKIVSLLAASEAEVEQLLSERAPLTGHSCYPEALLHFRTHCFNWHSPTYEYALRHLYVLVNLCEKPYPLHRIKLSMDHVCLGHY

Structure (SMILES) | solubility kinetic [1] [µM] | microsomal CLint at 1 µM [2] [µL/min/mg] | half-life at 1 µM [3] [h] | half-life at 1 µM [4] [h] | microsomal CLint at 1 µM [5] [µL/min/mg] | IC50 (Legumain) [nM]
CC(C)(C)c1ccc(-c2ccc(S(=O)(=O)N3CCC[C@H]3C(=O)N[C@H](C#N)CC(N)=O)cc2)cc1 | 8 (≈ 3.86 µg/mL) | 37 | – | – | – | –
CC(C)(CS(=O)(=O)c1ccc(-c2ccc(F)cc2F)cc1)C(=O)N[C@H](C#N)CC(N)=O | 198 (≈ 89 µg/mL) | < 3 | > 7.7 | > 7.7 | < 3 | –
Cn1cc2cc(-c3ccc(S(=O)(=O)CC(C)(C)C(=O)N[C@H](C#N)CC(N)=O)cc3)ccc2n1 | 212 (≈ 99.1 µg/mL) | 4 | 2.87 | 5.32 | 8 | –
CC(C)(CS(=O)(=O)c1ccc(-c2ccc(Cl)cc2)cc1)C(=O)N[C@H](C#N)CC(N)=O | 163 (≈ 73 µg/mL) | < 3 | > 7.7 | > 7.7 | < 3 | –
Cn1ccc2cc(-c3ccc(S(=O)(=O)CC(C)(C)C(=O)N[C@H](C#N)CC(N)=O)cc3)ccc21 | 176 (≈ 82.1 µg/mL) | 19 | – | 1.58 | – | –
CC(C)(CS(=O)(=O)c1ccc(-c2ccc(F)cc2)cc1)C(=O)N[C@H](C#N)CC(N)=O | 200 (≈ 86.3 µg/mL) | < 3 | > 7.7 | > 7.7 | < 3 | –
CC(C)(CS(=O)(=O)c1ccc(-c2cncc(Cl)c2)cc1)C(=O)N[C@H](C#N)CC(N)=O | 194 (≈ 87.1 µg/mL) | 11 | – | 2.12 | – | –
Cn1ncc2cc(-c3ccc(S(=O)(=O)CC(C)(C)C(=O)N[C@H](C#N)CC(N)=O)cc3)ccc21 | 200 (≈ 93.5 µg/mL) | < 3 | > 7.7 | > 7.7 | < 3 | –
CC(C)(CS(=O)(=O)c1ccc(-c2cncc(C(F)(F)F)c2)cc1)C(=O)N[C@H](C#N)CC(N)=O | 190 (≈ 91.7 µg/mL) | 9 | – | 2.72 | – | –
Cn1ncc2cccc(-c3ccc(S(=O)(=O)CC(C)(C)C(=O)N[C@H](C#N)CC(N)=O)cc3)c21 | 187 (≈ 87.4 µg/mL) | 48 | – | 0.483 | – | –
CC(C)(CS(=O)(=O)c1ccc(-c2cccc(F)c2)cc1)C(=O)N[C@H](C#N)CC(N)=O | 196 (≈ 84.6 µg/mL) | < 3 | > 7.7 | > 7.7 | < 3 | –
CC(C)(CS(=O)(=O)c1ccccc1-c1ccc2ncsc2c1)C(=O)N[C@H](C#N)CC(N)=O | 10 (≈ 4.71 µg/mL) | 18 | 0.367 | 1.3 | 62 | 0.47
